Values quoted from earlier work in PubChem BioAssay AID1259409 (Chemical Carcinogenesis Research Information System (CCRIS), 2018).

Tested on: rodent chemically induced tumor inhibition, incidence and multiplicity
Test: CCRIS tumor inhibitor studies
Settings: Dose [Inhibitor]: 0, Route [Inhibitor]: ORAL

COc1ccc(-c2cc(=O)c3c(O)cc(O[C@@H]4O[C@H](CO[C@@H]5O[C@@H](C)[C@H](O)[C@@H](O)[C@H]5O)[C@@H](O)[C@H](O)[C@H]4O)cc3o2)cc1O
tumour outcome (control, treated, inhibition, significance) (Carcinogen: 4-NITROQUINOLINE-1-OXIDE, 56-57-5, 1000 PPM IN DIET FOR 10 WK BEGINNING 1 WK PRIOR TO CARCINOGEN TREATMENT (STUDY DURATION: 32 WK), Species: RAT, Strain/Sex: F344/MALE, Target Tissue: Type of Lesion: TONGUE: PAPILLOMA, Dose [Carcinogen]: 20 PPM IN DRINKING WATER FOR 8 WK, Promoter: NONE USED): 8/17 (47%), 1/19 (5%), 89%, p<0.01
tumour outcome (control, treated, inhibition, significance) (Carcinogen: 4-NITROQUINOLINE-1-OXIDE, 56-57-5, 1000 PPM IN DIET FOR 10 WK BEGINNING 1 WK PRIOR TO CARCINOGEN TREATMENT (STUDY DURATION: 32 WK), Species: RAT, Strain/Sex: R344/MALE, Target Tissue: Type of Lesion: TONGUE: SQUAMOUS CELL CARCINOMA, Dose [Carcinogen]: 20 PPM IN DRINKING WATER FOR 8 WK, Promoter: NONE USED): 11/17 (65%), 4/19 (21%), 68%, p<0.01
tumour outcome (control, treated, inhibition, significance) (Carcinogen: 4-NITROQUINOLINE-1-OXIDE, 56-57-5, 1000 PPM IN DIET FOR 22 WK BEGINNING 1 WK POST CARCINOGEN TREATMENT (STUDY DURATION: 32 WK), Species: RAT, Strain/Sex: F344/MALE, Target Tissue: Type of Lesion: TONGUE: PAPILLOMA, Dose [Carcinogen]: 20 PPM IN DRINKING WATER FOR 8 WK, Promoter: NONE USED): 8/17 (47%), 2/20 (10%), 79%, p<0.05
tumour outcome (control, treated, inhibition, significance) (Carcinogen: 4-NITROQUINOLINE-1-OXIDE, 56-57-5, 1000 PPM IN DIET FOR 22 WK BEGINNING 1 WK POST CARCINOGEN TREATMENT (STUDY DURATION: 32 WK), Species: RAT, Strain/Sex: F344/MALE, Target Tissue: Type of Lesion: TONGUE: SQUAMOUS CELL CARCINOMA, Dose [Carcinogen]: 20 PPM IN DRINKING WATER FOR 8 WK, Promoter: NONE USED): 11/17 (65%), 3/20 (15%), 77%, p<0.05
tumour outcome (control, treated, inhibition, significance) (Carcinogen: AZOXYMETHANE, 25843-45-2, 0.1% IN DIET FOR 4 WK BEGINNING 1 WK PRIOR TO CARCINOGEN TREATMENT (STUDY DURATION: 32 WK), Species: RAT, Strain/Sex: F344/MALE, Target Tissue: Type of Lesion: COLON: ADENOCARCINOMA, Dose [Carcinogen]: 15 MG/KG BW 1/WK FOR 3 WK, Promoter: NONE): 70%, 22%, 69%, p<0.005
tumour outcome (control, treated, inhibition, significance) (Carcinogen: AZOXYMETHANE, 25843-45-2, 0.1% IN DIET FOR 28 WK BEGINNING 1 WK POST LAST CARCINOGEN DOSE (STUDY DURATION: 32 WK), Species: RAT, Strain/Sex: F344/MALE, Target Tissue: Type of Lesion: COLON: ADENOCARCINOMA, Dose [Carcinogen]: 15 MG/KG BW 1/WK FOR 3 WK, Promoter: NONE): 70%, 5%, 93%, p<0.001
tumour outcome (control, treated, inhibition, significance) (Carcinogen: AZOXYMETHANE, 25843-45-2, 1000 PPM IN DIET FOR 4 WK BEGINNING 1 WK PRIOR TO CARCINOGEN TREATMENT (STUDY DURATION: 32 WK), Species: RAT, Strain/Sex: F344/MALE, Target Tissue: Type of Lesion: LARGE INTESTINE: TUMOR, Dose [Carcinogen]: 15 MG/KG BW 1/WK FOR 3 WK, Promoter: NONE USED): 12/17 (71%), 5/19 (26%), 63%, p<0.01
tumour outcome (control, treated, inhibition, significance) (Carcinogen: AZOXYMETHANE, 25843-45-2, 1000 PPM IN DIET FOR 4 WK BEGINNING 1 WK PRIOR TO CARCINOGEN TREATMENT (STUDY DURATION: 32 WK), Species: RAT, Strain/Sex: F344/MALE, Target Tissue: Type of Lesion: SMALL INTESTINE: TUMOR, Dose [Carcinogen]: 15 MG/KG BW 1/WK FOR 3 WK, Promoter: NONE USED): 5/17 (29%), 0/19 (0%), 100%, p<0.05
tumour outcome (control, treated, inhibition, significance) (Carcinogen: AZOXYMETHANE, 25843-45-2, 1000 PPM IN DIET FOR 28 WK BEGINNING 1 WK POST CARCINOGEN TREATMENT (STUDY DURATION: 32 WK), Species: RAT, Strain/Sex: F344/MALE, Target Tissue: Type of Lesion: LARGE INTESTINE: TUMOR, Dose [Carcinogen]: 15 MG/KG BW 1/WK FOR 3 WK, Promoter: NONE USED): 12/17 (71%), 3/20 (15%), 79%, p<0.001
tumour outcome (control, treated, inhibition, significance) (Carcinogen: AZOXYMETHANE, 25843-45-2, 1000 PPM IN DIET FOR 28 WK BEGINNING 1 WK POST CARCINOGEN TREATMENT (STUDY DURATION: 32 WK), Species: RAT, Strain/Sex: F344/MALE, Target Tissue: Type of Lesion: SMALL INTESTINE: TUMOR, Dose [Carcinogen]: 15 MG/KG BW 1/WK FOR 3 WK, Promoter: NONE USED): 5/17 (29%), 2/20 (10%), 66%, not significant
tumour outcome (control, treated, inhibition, significance) (Carcinogen: N-BUTYL-N-(4-HYDROXYBUTYL)NITROSAMINE, 3817-11-6, 1000 PPM IN DIET FOR 8 WK BEGINNING 1 WK PRIOR TO CARCINOGEN TREATMENT (STUDY DURATION: 32 WK), Species: MOUSE, Strain/Sex: ICR/MALE, Target Tissue: Type of Lesion: URINARY BLADDER: PAPILLOMA, Dose [Carcinogen]: 500 PPM IN DRINKING WATER FOR 6 WK, Promoter: NONE USED): 5/26 (19%), 4/24 (17%), 11%, not significant
tumour outcome (control, treated, inhibition, significance) (Carcinogen: N-BUTYL-N-(4-HYDROXYBUTYL)NITROSAMINE, 3817-11-6, 1000 PPM IN DIET FOR 8 WK BEGINNING 1 WK PRIOR TO CARCINOGEN TREATMENT (STUDY DURATION: 32 WK), Species: MOUSE, Strain/Sex: ICR/MALE, Target Tissue: Type of Lesion: URINARY BLADDER: TRANSITIONAL CELL CARCINOMA, Dose [Carcinogen]: 500 PPM IN DRINKING WATER FOR 6 WK, Promoter: NONE USED): 16/26 (62%), 5/24 (21%), 66%, p<0.005
tumour outcome (control, treated, inhibition, significance) (Carcinogen: N-BUTYL-N-(4-HYDROXYBUTYL)NITROSAMINE, 3817-11-6, 1000 PPM IN DIET FOR 24 WK BEGINNING 1 WK POST CARCINOGEN TREATMENT (STUDY DURATION: 32 WK), Species: MOUSE, Strain/Sex: ICR/MALE, Target Tissue: Type of Lesion: URINARY BLADDER: PAPILLOMA, Dose [Carcinogen]: 500 PPM IN DRINKING WATER FOR 6 WK, Promoter: NONE USED): 5/26 (19%), 3/24 (13%), 32%, not significant
tumour outcome (control, treated, inhibition, significance) (Carcinogen: N-BUTYL-N-(4-HYDROXYBUTYL)NITROSAMINE, 3817-11-6, 1000 PPM IN DIET FOR 24 WK BEGINNING 1 WK POST CARCINOGEN TREATMENT (STUDY DURATION: 32 WK), Species: MOUSE, Strain/Sex: ICR/MALE, Target Tissue: Type of Lesion: URINARY BLADDER: TRANSITIONAL CELL CARCINOMA, Dose [Carcinogen]: 500 PPM IN DRINKING WATER FOR 6 WK, Promoter: NONE USED): 16/26 (62%), 2/24 (8%), 87%, p<0.0001
tumour outcome (control, treated, inhibition, significance) (Carcinogen: N-METHYL-N-AMYLNITROSAMINE, 13256-07-0, 1000 PPM IN DIET FOR 7 WK BEGINNING 1 WK POST CARCINOGEN TREATMENT (STUDY DURATION: 20 WK), Species: RAT, Strain/Sex: WISTAR/MALE, Target Tissue: Type of Lesion: ESOPHAGUS: SQUAMOUS CELL CARCINOMA, Dose [Carcinogen]: 12.5 MG/KG BW 1/WK FOR 12 WK, Promoter: NONE USED): 75%, 39%, 48%, not significant
tumour outcome (control, treated, inhibition, significance) (Carcinogen: N-METHYL-N-AMYLNITROSAMINE, 13256-07-0, 1000 PPM IN DIET FOR 7 WK BEGINNING 1 WK POST CARCINOGEN TREATMENT (STUDY DURATION: 20 WK), Species: RAT, Strain/Sex: WISTAR/MALE, Target Tissue: Type of Lesion: ESOPHAGUS: SQUAMOUS CELL PAPILLOMA, Dose [Carcinogen]: 12.5 MG/KG BW 1/WK FOR 12 WK, Promoter: NONE USED): 100%, 100%, 0%, not significant
tumour outcome (control, treated, inhibition, significance) (Carcinogen: N-METHYL-N-AMYLNITROSAMINE, 13256-07-0, 1000 PPM IN DIET FOR 7 WK BEGINNING 1 WK POST CARCINOGEN TREATMENT (STUDY DURATION: 20 WK), Species: RAT, Strain/Sex: WISTAR/MALE, Target Tissue: Type of Lesion: TONGUE: SQUAMOUS CELL CARCINOMA, Dose [Carcinogen]: 12.5 MG/KG BW 1/WK FOR 12 WK, Promoter: NONE USED): 17%, 0%, 100%, not calculated
tumour outcome (control, treated, inhibition, significance) (Carcinogen: N-METHYL-N-AMYLNITROSAMINE, 13256-07-0, 1000 PPM IN DIET FOR 7 WK BEGINNING 1 WK POST CARCINOGEN TREATMENT (STUDY DURATION: 20 WK), Species: RAT, Strain/Sex: WISTAR/MALE, Target Tissue: Type of Lesion: TONGUE: SQUAMOUS CELL PAPILLOMA, Dose [Carcinogen]: 12.5 MG/KG BW 1/WK FOR 12 WK, Promoter: NONE USED): 33%, 11%, 67%, not calculated
tumour outcome (control, treated, inhibition, significance) (Carcinogen: N-METHYL-N-AMYLNITROSAMINE, 13256-07-0, 1000 PPM IN DIET FOR 13 WK BEGINNING 1 WK PRIOR TO CARCINOGEN TREATMENT (STUDY DURATION: 20 WK), Species: RAT, Strain/Sex: WISTAR/MALE, Target Tissue: Type of Lesion: ESOPHAGUS: SQUAMOUS CELL CARCINOMA, Dose [Carcinogen]: 12.5 MG/KG BW 1/WK FOR 12 WK, Promoter: NONE USED): 75%, 29%, 61%, p<0.05
tumour outcome (control, treated, inhibition, significance) (Carcinogen: N-METHYL-N-AMYLNITROSAMINE, 13256-07-0, 1000 PPM IN DIET FOR 13 WK BEGINNING 1 WK PRIOR TO CARCINOGEN TREATMENT (STUDY DURATION: 20 WK), Species: RAT, Strain/Sex: WISTAR/MALE, Target Tissue: Type of Lesion: ESOPHAGUS: SQUAMOUS CELL PAPILLOMA, Dose [Carcinogen]: 12.5 MG/KG BW 1/WK FOR 12 WK, Promoter: NONE USED): 100%, 100%, 0%, not significant
tumour outcome (control, treated, inhibition, significance) (Carcinogen: N-METHYL-N-AMYLNITROSAMINE, 13256-07-0, 1000 PPM IN DIET FOR 13 WK BEGINNING 1 WK PRIOR TO CARCINOGEN TREATMENT (STUDY DURATION: 20 WK), Species: RAT, Strain/Sex: WISTAR/MALE, Target Tissue: Type of Lesion: TONGUE: SQUAMOUS CELL CARCINOMA, Dose [Carcinogen]: 12.5 MG/KG BW 1/WK FOR 12 WK, Promoter: NONE USED): 17%, 0%, 100%, not calculated
tumour outcome (control, treated, inhibition, significance) (Carcinogen: N-METHYL-N-AMYLNITROSAMINE, 13256-07-0, 1000 PPM IN DIET FOR 13 WK BEGINNING 1 WK PRIOR TO CARCINOGEN TREATMENT (STUDY DURATION: 20 WK), Species: RAT, Strain/Sex: WISTAR/MALE, Target Tissue: Type of Lesion: TONGUE: SQUAMOUS CELL PAPILLOMA, Dose [Carcinogen]: 12.5 MG/KG BW 1/WK FOR 12 WK, Promoter: NONE USED): 33%, 6%, 82%, not calculated
